# Measured values taken from US11447445B2, “Diabetes and metabolic syndrome treatment with a novel dual modulator of soluble epoxide hydrolase and peroxisome proliferator-activated receptors” (priority 2015, dated 2022).
# What was measured:
# [1] = target: T1, PPARα (Homo sapiens, UniProt Q07869); format: cell-based; conditions: i.a. = inactive
# T1 construct: expressed in transfected cells; host or cells: COS-7
# Experimental: (§1) COS-7 cells (PPAR) were grown in DMEM high glucose, supplemented with 10% fetal calf serum (FCS), 1% sodium pyruvate (SP) and 1% penicillin/streptomycin (PS) at 37° C. and 5% CO2. Used plasmids for PPAR transactivation assay are shown under supporting informations.
# (§2) The day before transfection, COS-7 cells were seeded in 96-well plates with a density of 30,000 cells per well. Transient transfection was carried out using Lipofectamine LTX reagent (Invitrogen, Carlsbad, Calif., USA) according to the manufacturer's protocol with pFR-Luc (Stratagene), pRL-SV40 (Promega) and the Ga14-fusion receptor plasmids (pFA-CMV-hPPAR-LBD) of the respective PPAR subtype. 5 h after transfection, medium was changed to DMEM without phenol red and 10% FCS, supplemented with 1% SP, 1% PS and 1% L-glutamine, now additionally containing 0.1% DMSO and the respective test compound or 0.1% DMSO alone as untreated control. Each concentration was tested in triplicate wells and each experiment was repeated independently at least three times. Following overnight incubation with the test compounds, cells were assayed for luciferase activity using Dual-Glo™ Luciferase Assay System (Promega) according to the manufacturer's protocol. Luminescence was measured with an Infinite m200 luminometer (Tecan Deutschland GmbH). Each concentration of the compounds was tested in triplicate wells. Normalization for transfection efficacy and cell growth was done by division of the firefly luciferase data by renilla luciferase data resulting in relative light units. Activation factors were obtained by dividing by DMSO control. […] All compounds were evaluated by comparison of the achieved maximum effect to that of the reference compound (pioglitazone for PPARγ, GW7647 for PPARa, and L165041 for PPARS each with 1 μM). Data are expressed as mean±SE; n≥3.
# (§3) The Gal4-fusion receptor plasmids pFA-CMV-PPARa-LBD, pFA-CMV-PPARS-LBD and pFA-CMV-PPARγ-LBD containing the hinge region and ligand binding domain (LBD) for each of the PPAR subtypes, respectively, were constructed by integrating cDNA fragments obtained from PCR amplification of human monocytes into the SmaI/XbaI cleavage site of the pFA-CMV vector (Stratagene, La Jolla, Calif., USA) and have already been published. […] Frame and sequence of the fusion receptors were verified by sequencing. pFR-Luc (Stratagene) was used as reporter plasmid and pRL-SV40 (Promega) for normalization of transfection efficacy and cell growth.
# [2] = target: T2, PPARδ (Homo sapiens, UniProt Q03181); assay: PPAR transactivation assay in COS-7 cells (Gal4-hPPAR-LBD, luciferase); format: cell-based; conditions: i.a. = inactive
# T2 construct: expressed in transfected cells; host or cells: COS-7
# T2 sequence (Q03181 211-439): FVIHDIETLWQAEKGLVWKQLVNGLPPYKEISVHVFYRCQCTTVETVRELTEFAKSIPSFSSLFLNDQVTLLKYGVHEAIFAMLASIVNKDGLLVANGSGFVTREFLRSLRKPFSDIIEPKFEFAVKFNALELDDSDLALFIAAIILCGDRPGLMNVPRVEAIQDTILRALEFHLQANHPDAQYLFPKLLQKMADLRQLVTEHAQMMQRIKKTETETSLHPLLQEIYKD
# Experimental: as §1, §2, §3
# [3] = target: T3, recombinant human sEH (Homo sapiens, UniProt P34913); assay: biochemical; conditions: for inhibition at 10 µM: read-out: sEH inhibition @10 μM (converted); for IC50: read-out: IC50 sEH (converted)
# T3 sequence (P34913 1-555): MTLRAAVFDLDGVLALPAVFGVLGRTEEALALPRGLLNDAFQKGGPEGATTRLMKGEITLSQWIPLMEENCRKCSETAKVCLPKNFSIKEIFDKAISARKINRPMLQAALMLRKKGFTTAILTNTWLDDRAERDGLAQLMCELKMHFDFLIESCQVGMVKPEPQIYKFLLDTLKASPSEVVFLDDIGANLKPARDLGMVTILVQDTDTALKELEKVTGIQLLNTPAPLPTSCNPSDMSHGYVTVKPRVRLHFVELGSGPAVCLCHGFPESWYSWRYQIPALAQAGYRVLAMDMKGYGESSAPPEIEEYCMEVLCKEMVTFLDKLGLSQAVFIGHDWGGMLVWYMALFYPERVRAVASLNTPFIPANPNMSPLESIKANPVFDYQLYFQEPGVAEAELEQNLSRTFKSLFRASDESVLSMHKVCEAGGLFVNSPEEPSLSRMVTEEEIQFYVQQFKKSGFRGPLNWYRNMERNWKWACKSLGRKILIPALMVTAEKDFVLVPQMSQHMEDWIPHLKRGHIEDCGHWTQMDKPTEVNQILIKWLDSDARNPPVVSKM
# [4] = Water solubility approximation; format: physicochemical; conditions: PBS with 0.01% Polysorbate 20, aqueous with cosolvent or surfactant or cyclodextrin, kinetic from dmso stock; PBS pH 7.4, 0.01% Polysorbate 20, 1% DMSO; precipitation at 650 nm; read-out: w.s. (water solubility)
# Experimental: PBS at pH 7.4 with 0.01% Polysorbate 20 (Tween) was combined with 1% of a DMSO solution of the inquired compound in a 96-well transparent flat bottom microtiter plate. Precipitation of the compound was measured at 650 nm with a Tecan Infinite 200 (Tecan Group Ltd, Mannedorf, Switzerland).
# [5] = target: T4, PPARγ (Homo sapiens, UniProt P37231); assay: cell-based; format: cell-based
# T4 construct: expressed in transfected cells; host or cells: COS-7
# T4 sequence (P37231 238-503): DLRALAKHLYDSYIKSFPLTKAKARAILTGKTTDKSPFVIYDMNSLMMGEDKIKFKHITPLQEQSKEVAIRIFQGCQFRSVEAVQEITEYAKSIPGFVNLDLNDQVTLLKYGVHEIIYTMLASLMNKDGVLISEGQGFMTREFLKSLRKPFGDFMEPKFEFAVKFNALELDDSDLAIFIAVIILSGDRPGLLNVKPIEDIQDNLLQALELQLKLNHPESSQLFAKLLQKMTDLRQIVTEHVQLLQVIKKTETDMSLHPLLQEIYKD
# Experimental: as §1, §2, §3
# T1 sequence (Q07869 239-466): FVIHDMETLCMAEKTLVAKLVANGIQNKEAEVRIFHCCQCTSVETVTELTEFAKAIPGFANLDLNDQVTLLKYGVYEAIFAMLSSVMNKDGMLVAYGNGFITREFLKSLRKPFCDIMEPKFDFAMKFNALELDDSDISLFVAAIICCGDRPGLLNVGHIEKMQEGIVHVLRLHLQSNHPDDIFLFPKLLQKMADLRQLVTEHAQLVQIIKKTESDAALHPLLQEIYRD
SMILES,EC50 PPARα [1],EC50 PPARδ [2],inhibition at 10 µM [3] [%],solubility [4] [µM],IC50 [3] [nM],EC50 PPARγ ([5]; i.a. = inactive),"activation at 10 µM ([5]; COS-7, read-out: PPARγ activation @10 μM, at 10 μM, compared to pioglitazone 1 μM) [%]",sEH IC50 / inhibitory potency (unit not given) [3]
"CCC(Cc1ccc(C(=O)NCc2ccccc2Br)cc1)C(=O)O (stereo not shown) [Compound 5c, 2-Ethyl 3-[4-(N-((2-bromo)benzyl)benzamide)]propionic acid]",n.t. i.a. i.a. n.t.,n.t. i.a. i.a. n.t.,34,500,,,,
"CCOC(=O)C(CC)Cc1ccc(C(=O)NCc2ccccc2OC(F)(F)F)cc1 (stereo not shown) [Compound 6b, Ethyl 2-ethyl 3-[4-(N-((2-trifluoromethoxy)benzyl)benzamide)]propanoate]",n.t. i.a. i.a. n.t.,n.t. i.a. i.a. n.t.,,100,,,,
"CCC(Cc1ccc(C(=O)NCc2ccccc2OC(F)(F)F)cc1)C(=O)O (stereo not shown) [Compound 6c, 2-Ethyl 3-[4-(N-((2-trifluoromethoxy)benzyl)benzamide)]propionic acid]",n.t. i.a. i.a. n.t.,n.t. i.a. i.a. n.t.,23,500,,,,
"CCOC(=O)C(CC)Cc1ccc(C(=O)NCc2ccc(OC)cc2)cc1 (stereo not shown) [Compound 10b, Ethyl 2-ethyl 3-[4-(N-((4-methoxy)benzyl)benzamide)]propanoate]",n.t. i.a. i.a. n.t.,n.t. i.a. i.a. n.t.,,10,,,,
"CCC(Cc1ccc(C(=O)NCc2ccc(OC)cc2)cc1)C(=O)O (stereo not shown) [Compound 10c, 2-Ethyl 3-[4-(N-((4-methoxy)benzyl)benzamide)]propionic acid]",n.t. i.a. i.a. n.t.,n.t. i.a. i.a. n.t.,34,500,,,,
"CCOC(=O)C(CC)Cc1ccc(C(=O)NCc2ccc(Cl)cc2)cc1 (stereo not shown) [Compound 11b, Ethyl 2-ethyl 3-[4-(N-((4-chloro)benzyl)benzamide)]propanoate]",n.t. i.a. i.a. n.t.,n.t. i.a. i.a. n.t.,,10,,,,
"CCC(Cc1ccc(C(=O)NCc2ccc(Cl)cc2)cc1)C(=O)O (stereo not shown) [Compound 11c, 2-Ethyl 3-[4-(N-((4-chloro)benzyl)benzamide)]propionic acid]",n.t. i.a. i.a. n.t.,n.t. i.a. i.a. n.t.,,500,,,,
"CCOC(=O)/C=C/c1ccc(C(=O)NCc2ccccc2C(F)(F)F)cc1 [Compound 16a, Ethyl (E)-4-[N-((2-trifluoromethyl)benzyl)benzamide]-cinnamate]",i.a.,i.a.,,2.5,130 ± 5,,,
"CCOC(=O)CCc1ccc(C(=O)NCc2ccccc2C(F)(F)F)cc1 [Compound 16b, Ethyl 3-[4-(N-((2-trifluoromethyl)benzyl)benzamide)]propanoate]",i.a.,i.a.,,5,110 ± 3,,,
"O=C(O)CCc1ccc(C(=O)NCc2ccccc2C(F)(F)F)cc1 [Compound 16c, 3-[4-(N-((2-trifluoromethyl)benzyl)benzamide)]propionic acid]",i.a.,i.a.,,500,9000 ± 1700,,,
"O=C(O)/C=C/c1ccc(C(=O)NCc2ccccc2C(F)(F)F)cc1 [Compound 16d, (E)-4-[N-((2-Trifluoromethyl)benzyl)benzamide]-cinnamic acid]",i.a.,i.a.,,10,800 ± 50,,,
"CCOC(=O)C(C)Cc1ccc(C(=O)NCc2ccccc2C(F)(F)F)cc1 (stereo not shown) [Compound 17b, Ethyl 2-methyl 3-[4-(N-((2-trifluoromethyl)benzyl)benzamide)]propanoate]",i.a.,i.a.,,10,250 ± 40,,,
"CC(Cc1ccc(C(=O)NCc2ccccc2C(F)(F)F)cc1)C(=O)O (stereo not shown) [Compound 17c, 2-Methyl 3-[4-(N-((2-trifluoromethyl)benzyl)benzamide)]propionic acid]",i.a.,i.a.,,500,8000 ± 1600,,,
"CCCC(Cc1ccc(C(=O)NCc2ccccc2C(F)(F)F)cc1)C(=O)OCC (stereo not shown) [Compound 18b, Ethyl 2-propyl 3-[4-(N-((2-trifluoromethyl)benzyl)benzamide)]propanoate]",i.a.,i.a.,,5,170 ± 40,,,
"CCCC(Cc1ccc(C(=O)NCc2ccccc2C(F)(F)F)cc1)C(=O)O (stereo not shown) [Compound 18c, 2-Propyl 3-[4-(N-((2-trifluoromethyl)benzyl)benzamide)]propionic acid]",i.a.,i.a.,,500,5000 ± 1300,,,
"CCOC(=O)C(Cc1ccc(C(=O)NCc2ccccc2C(F)(F)F)cc1)c1ccccc1 (stereo not shown) [Compound 19b, Ethyl 2-phenyl 3-[4-(N-((2-trifluoromethyl)benzyl)benzamide)]propanoate]",i.a.,i.a.,,5,120 ± 13,,,
"O=C(NCc1ccccc1C(F)(F)F)c1ccc(CC(C(=O)O)c2ccccc2)cc1 (stereo not shown) [Compound 19c, 2-Phenyl 3-[4-(N-((2-trifluoromethyl)benzyl)benzamide)]propionic acid]",i.a.,i.a.,,100,2500 ± 500,,,
CON(C)C(=O)/C=C/c1ccc(C(=O)NCc2ccccc2C(F)(F)F)cc1 [Compound 20],i.a.,i.a.,,,70 ± 20,i.a.,,
"CON(C)C(=O)C1CC1c1ccc(C(=O)NCc2ccccc2C(F)(F)F)cc1 (stereo not shown) [Compound 21, N-Methoxy-N-methyl 3-[4-(N-((2-trifluoromethyl)benzyl)benzamide)]cyclopropanecarboxamide]",i.a.,i.a.,,,80 ± 4,,30,double-digit nanomolar range
